Assay results from PMC13308190, “Endothelial progenitor cell susceptibility to DNA damaging and DDR-modulating compounds determines endothelial differentiation accuracy” (Stem Cell Research & Therapy, 2026).

Columns and labels:
Assay type in all cases: cell-based, mouse
[1] = system: EC d4 (endothelial progenitor cells); experiment: RT-qPCR mRNA expression; details: for Ccl2 mRNA / E-selectin mRNA / Icam-1 mRNA / Vcam-1 mRNA / eNos mRNA / iNos mRNA: Fig 8D; for Cdkn1a mRNA / Cdkn2a mRNA / Glb1 mRNA / Il6 mRNA / Il8 mRNA / Tp53 mRNA: Fig 7B; for Brca1 mRNA / Chk1 mRNA / Rad51 mRNA: Fig 5C; for Pgc1a mRNA: Fig 6D; for Cldn5 mRNA / Ocln mRNA / Tjp1 mRNA: Fig 8C; for Ldlr mRNA: Fig 8F
Protocol: Total RNA was purified using the RNeasy Mini Kit (Qiagen, Hilden, Germany). Reverse transcriptase (RT) reaction was performed with the HighCapacity cDNA Reverse Transcription Kit (Applied Biosystems, Darmstadt, Germany) using 900–2000 ng of RNA. Quantitative RT-qPCR analysis was performed using following conditions: (1) 95 °C–10 min; (2) 45 amplification cycles with 95 °C–15 s, 55 °C–15 s, and 72 °C–17 s; (3) 95 °C–1 min, 55 °C–1 min, 65 °C–5 s. If not stated otherwise, analyses were performed in technical triplicates using pooled samples from two independent experiments (each performed with biological duplicates) by use of a CFX96 cycler (BioRad) and the SensiMix SYBR Kit (Bioline, London, UK). The primers used for mRNA expression analyses are listed in Supplementary Table 1. To ensure the specificity of the amplification product, melting curves were recorded at the end of the run. mRNA expression levels were normalized to β-Actin and Gapdh. Relative mRNA expression in mESC or corresponding untreated controls was set to 1.0. Only changes in gene expression of ≤ 0.5- and ≥ 2-fold were considered as biologically relevant.
(§1) To monitor prototypical functions of endothelial cells, the uptake of fluorescent 1,1-dioctadecyl-3,3,3,3-tetra-methylindocarbocyanine-labeled acetylated LDL (Dil-acLDL) was examined. Briefly, cells were incubated with Dil-acLDL (10 µg/ml, 4 h, 37 °C). After fixation (3.7% cold formaldehyde/PBS (15 min, RT) nuclei were counterstained with DAPI. The uptake of DiI-acLDL was analyzed by fluorescence microscopy (Olympus BX43, 20x objective). Additionally, the response of differentiated EC to inflammatory cytokines was measured. After treatment with a pro-inflammatory cytokine mixture (TNFα/IL-1β, 10 ng/mL) for 1 h, mRNA expression of activated EC markers E-selectin, Icam-1, Vcam-1, Ccl2, eNos, iNos was analyzed (RT-qPCR).

[2] = system: mESC; experiment: EdU incorporation (S-phase activity); details: mESC 24 h
Protocol: S-phase activity of cells was monitored by measuring EdU incorporation using the EdU-Click 488 assay according to the manufacturer’s protocol. Briefly, cells were pulse-treated with 5-ethynyl-2′-deoxyuridine (EdU) for 3 h. Alexa Fluor 488-conjugated reaction cocktail was added (30 min, RT) and nuclei were counterstained with DAPI. The percentage of EdU-positive area/DAPI-positive area was calculated by fluorescence microscopy (Olympus BX43, 20x objective).

[3] = system: EC d4; experiment: Dil-acLDL uptake; details: EC d4 treated 48 h
Protocol: as §1

[4] = system: EC d4; experiment: Beta-galactosidase staining (senescence); details: EC d4 48 h
Protocol: (§2) Beta-galactosidase activity was analyzed using the Cellular Senescence Assay Kit (Cell Biolabs, Inc., San Diego, CA, USA) according to the manufacturer’s instructions. After treatment and/or post-incubation period, the cells were fixed and stained (overnight, 37 °C). For control, untreated cells were incubated with working solution containing citrate-Na2HPO4 buffer at pH 4. The cells were analyzed by light microscopy (Axiovert 40 C, Carl Zeiss AG, 20x objective) and the fraction of beta-galactosidase positive (blue) cells was calculated (5 images per sample).

[5] = system: EC d6; experiment: Beta-galactosidase staining (senescence); details: EC d6 24 h + 24 h post incubation
Protocol: as §2

[6] = EC d4 + 5 µM 48 h, analysed in EC d6
[7] = EC d4 + 5 µM 48 h, then + I/T (IL-1β/TNFα 10 ng/ml, 1 h)
[8] = EC d4 + 15 µM 48 h, analysed day 6, Fig 1C
[9] = EC d4 + 15 µM 48 h, analysed in EC d6
[10] = EC d4 + 15 µM 48 h, then + I/T (IL-1β/TNFα 10 ng/ml, 1 h)
[11] = EC d4 + 0.5 µM 48 h, analysed in EC d6
[12] = EC d4 + 0.5 µM 48 h, then + I/T (IL-1β/TNFα 10 ng/ml, 1 h)
[13] = EC d4 + 1 µM 48 h, analysed day 6, Fig 1C
[14] = EC d4 + 1 µM 48 h, analysed in EC d6
[15] = EC d4 + 1 µM 48 h, then + I/T (IL-1β/TNFα 10 ng/ml, 1 h)

O=c1c2ccccc2nc(/C=C/c2cccnc2)n1Cc1ccccc1 [B02]
Ccl2 mRNA [1, 6]: 2.96 Fold of untreated control | E-selectin mRNA [1, 6]: 120.46 Fold of untreated control | Icam-1 mRNA [1, 6]: 3.12 Fold of untreated control | Vcam-1 mRNA [1, 6]: 0.19 Fold of untreated control | eNos mRNA [1, 6]: 153.40 Fold of untreated control | iNos mRNA [1, 6]: 2.01 Fold of untreated control | Ccl2 mRNA [1, 7]: 279.77 Fold of untreated control | E-selectin mRNA [1, 7]: 257.65 Fold of untreated control | Icam-1 mRNA [1, 7]: 9.69 Fold of untreated control | Vcam-1 mRNA [1, 7]: 0.36 Fold of untreated control | eNos mRNA [1, 7]: 184.04 Fold of untreated control | iNos mRNA [1, 7]: 2.26 Fold of untreated control | Cdkn1a mRNA ([1]; EC d4 + 5 µM 48 h): 1.71 Fold of untreated control | Cdkn2a mRNA ([1]; EC d4 + 5 µM 48 h): 1.24 Fold of untreated control | Glb1 mRNA ([1]; EC d4 + 5 µM 48 h): 1.45 Fold of untreated control | Il6 mRNA ([1]; EC d4 + 5 µM 48 h): 0.80 Fold of untreated control | Il8 mRNA ([1]; EC d4 + 5 µM 48 h): 0.83 Fold of untreated control | Tp53 mRNA ([1]; EC d4 + 5 µM 48 h): 0.98 Fold of untreated control | Flk1 mRNA [1, 8]: 6.99 Fold of mESC | Nanog mRNA [1, 8]: 0.03 Fold of mESC | Oct4 mRNA [1, 8]: 0.01 Fold of mESC | Pecam1 mRNA [1, 8]: 0.62 Fold of mESC | Tie1 mRNA [1, 8]: 29.11 Fold of mESC | VE-cad mRNA [1, 8]: 484.74 Fold of mESC | Ccl2 mRNA [1, 9]: 0.38 Fold of untreated control | E-selectin mRNA [1, 9]: 126.11 Fold of untreated control | Icam-1 mRNA [1, 9]: 1.02 Fold of untreated control | Vcam-1 mRNA [1, 9]: 0.08 Fold of untreated control | eNos mRNA [1, 9]: 47.93 Fold of untreated control | iNos mRNA [1, 9]: 0.43 Fold of untreated control | Ccl2 mRNA [1, 10]: 84.86 Fold of untreated control | E-selectin mRNA [1, 10]: 165.16 Fold of untreated control | Icam-1 mRNA [1, 10]: 2.52 Fold of untreated control | Vcam-1 mRNA [1, 10]: 0.12 Fold of untreated control | eNos mRNA [1, 10]: 55.08 Fold of untreated control | iNos mRNA [1, 10]: 0.33 Fold of untreated control | Brca1 mRNA ([1]; EC d4 + 15 µM 48 h): 0.27 Fold of mESC | Chk1 mRNA ([1]; EC d4 + 15 µM 48 h): 0.92 Fold of mESC | Rad51 mRNA ([1]; EC d4 + 15 µM 48 h): 0.19 Fold of mESC | Pgc1a mRNA ([1]; EC d4 + 15 µM 48 h): 0.11 Fold of untreated control | Cdkn1a mRNA ([1]; EC d4 + 15 µM 48 h): 2.57 Fold of untreated control | Cdkn2a mRNA ([1]; EC d4 + 15 µM 48 h): 1.39 Fold of untreated control | Glb1 mRNA ([1]; EC d4 + 15 µM 48 h): 2.55 Fold of untreated control | Il6 mRNA ([1]; EC d4 + 15 µM 48 h): 1.35 Fold of untreated control | Il8 mRNA ([1]; EC d4 + 15 µM 48 h): 0.85 Fold of untreated control | Tp53 mRNA ([1]; EC d4 + 15 µM 48 h): 0.72 Fold of untreated control | Cldn5 mRNA ([1]; EC d4 + 15 µM 48 h): 0.18 Fold of EC d4 or d6 | Ocln mRNA ([1]; EC d4 + 15 µM 48 h): 1.16 Fold of EC d4 or d6 | Tjp1 mRNA ([1]; EC d4 + 15 µM 48 h): 1.26 Fold of EC d4 or d6 | Ldlr mRNA ([1]; EC d4 + 15 µM 48 h): 1.78 Fold of untreated control | number of EdU-positive cells [2]: not | LDL uptake in EC d6 progeny of treated EC d4 [3]: strongest functional defect

Nc1ccccc1NC(=O)c1ccc(CNC(=O)OCc2cccnc2)cc1 [EST, entinostat]
Ccl2 mRNA [1, 11]: 4.20 Fold of untreated control | Icam-1 mRNA [1, 11]: 6.04 Fold of untreated control | Vcam-1 mRNA [1, 11]: 0.80 Fold of untreated control | eNos mRNA [1, 11]: 156.02 Fold of untreated control | iNos mRNA [1, 11]: 4.21 Fold of untreated control | Ccl2 mRNA [1, 12]: 454.50 Fold of untreated control | Icam-1 mRNA [1, 12]: 26.69 Fold of untreated control | Vcam-1 mRNA [1, 12]: 1.68 Fold of untreated control | eNos mRNA [1, 12]: 165.80 Fold of untreated control | iNos mRNA [1, 12]: 4.06 Fold of untreated control | Cdkn1a mRNA ([1]; EC d4 + 0.5 µM 48 h): 1.59 Fold of untreated control | Cdkn2a mRNA ([1]; EC d4 + 0.5 µM 48 h): 1.29 Fold of untreated control | Glb1 mRNA ([1]; EC d4 + 0.5 µM 48 h): 1.41 Fold of untreated control | Il6 mRNA ([1]; EC d4 + 0.5 µM 48 h): 0.99 Fold of untreated control | Il8 mRNA ([1]; EC d4 + 0.5 µM 48 h): 0.80 Fold of untreated control | Tp53 mRNA ([1]; EC d4 + 0.5 µM 48 h): 1.018 Fold of untreated control | Flk1 mRNA [1, 13]: 19.60 Fold of mESC | Nanog mRNA [1, 13]: 0.05 Fold of mESC | Oct4 mRNA [1, 13]: 0.05 Fold of mESC | Pecam1 mRNA [1, 13]: 1.30 Fold of mESC | VE-cad mRNA [1, 13]: 858.76 Fold of mESC | Ccl2 mRNA [1, 14]: 0.90 Fold of untreated control | Icam-1 mRNA [1, 14]: 5.21 Fold of untreated control | Vcam-1 mRNA [1, 14]: 0.49 Fold of untreated control | eNos mRNA [1, 14]: 58.94 Fold of untreated control | Ccl2 mRNA [1, 15]: 132.23 Fold of untreated control | Icam-1 mRNA [1, 15]: 19.80 Fold of untreated control | Vcam-1 mRNA [1, 15]: 1.55 Fold of untreated control | eNos mRNA [1, 15]: 53.06 Fold of untreated control | iNos mRNA [1, 15]: 1.30 Fold of untreated control | Brca1 mRNA ([1]; EC d4 + 1 µM 48 h): 0.32 Fold of mESC | Chk1 mRNA ([1]; EC d4 + 1 µM 48 h): 0.51 Fold of mESC | Rad51 mRNA ([1]; EC d4 + 1 µM 48 h): 0.26 Fold of mESC | Pgc1a mRNA ([1]; EC d4 + 1 µM 48 h): 0.21 Fold of untreated control | Cdkn1a mRNA ([1]; EC d4 + 1 µM 48 h): 1.62 Fold of untreated control | Cdkn2a mRNA ([1]; EC d4 + 1 µM 48 h): 1.49 Fold of untreated control | Glb1 mRNA ([1]; EC d4 + 1 µM 48 h): 1.61 Fold of untreated control | Il6 mRNA ([1]; EC d4 + 1 µM 48 h): 1.09 Fold of untreated control | Il8 mRNA ([1]; EC d4 + 1 µM 48 h): 0.57 Fold of untreated control | Tp53 mRNA ([1]; EC d4 + 1 µM 48 h): 0.99 Fold of untreated control | Cldn5 mRNA ([1]; EC d4 + 1 µM 48 h): 0.55 Fold of EC d4 or d6 | Ocln mRNA ([1]; EC d4 + 1 µM 48 h): 1.06 Fold of EC d4 or d6 | Tjp1 mRNA ([1]; EC d4 + 1 µM 48 h): 1.56 Fold of EC d4 or d6 | Ldlr mRNA ([1]; EC d4 + 1 µM 48 h): 0.66 Fold of untreated control | percentage of beta-Gal-positive cells [4]: increase | percentage of beta-Gal-positive cells [5]: increase
